Reference: BigSolDB 2.1

Cc1ncc(CO)c(CO)c1O.Cl
solubility (mole fraction)
Settings	278.15 K	283.15 K	288.15 K	293.15 K	298.15 K	303.15 K	308.15 K	313.15 K
in ethanol	0.000447	0.000484	0.000557	0.000651	0.000801	0.000989	0.00118	0.00143
in methanol	0.00221	0.00253	0.0028	0.00329	0.00373	0.00425	0.00486	0.00549
in water	0.0105	0.0123	0.0144	0.0168	0.0191	0.022	0.025	0.0286
